ChEMBL document CHEMBL2346657, “Synthesis of novel 2-amino-4-(5'-substituted 2'-phenyl-1H-indol-3'-yl)-6-aryl-4H-pyran-3-carbonitrile derivatives as antimicrobial and antioxidant agents” (2013)
The source made the active and inactive calls. No rule for the calls is given here.

Key:
Assay type in all cases: functional
Aspergillus oryzae [1] = experiment: Antimicrobial activity against Aspergillus oryzae MTCC 3567 at 1000 ug/ml after 72 hrs by cup plate method; conditions: MTCC 3567, 72 h, read-out: IZ
Aspergillus flavus [2] = experiment: Antimicrobial activity against Aspergillus flavus MTCC 1973 at 1000 ug/ml after 72 hrs by cup plate method; conditions: MTCC 1973, 72 h, read-out: IZ
Aspergillus flavus [3] = experiment: Antimicrobial activity against Aspergillus flavus MTCC 1973 at 500 ug/ml after 72 hrs by cup plate method; conditions: MTCC 1973, 72 h, read-out: IZ
Aspergillus niger [4] = experiment: Antimicrobial activity against Aspergillus niger MTCC 281 at 500 ug/ml after 72 hrs by cup plate method; conditions: MTCC 281, 72 h, read-out: IZ
Aspergillus terreus [5] = experiment: Antimicrobial activity against Aspergillus terreus MTCC 1782 at 750 ug/ml after 72 hrs by cup plate method; conditions: MTCC 1782, 72 h, read-out: IZ
Escherichia coli [6] = experiment: Antimicrobial activity against Escherichia coli MTCC 723 at 750 ug/ml after 24 hrs by cup plate method; conditions: MTCC 723, 24 h, read-out: IZ
Aspergillus niger [7] = experiment: Antimicrobial activity against Aspergillus niger MTCC 281 at 1000 ug/ml after 72 hrs by cup plate method; conditions: MTCC 281, 72 h, read-out: IZ
Staphylococcus aureus [8] = experiment: Antimicrobial activity against Staphylococcus aureus ATCC 29513 at 750 ug/ml after 24 hrs by cup plate method; conditions: ATCC 29513, 24 h, read-out: IZ
Aspergillus flavus [9] = experiment: Antimicrobial activity against Aspergillus flavus MTCC 1973 at 750 ug/ml after 72 hrs by cup plate method; conditions: MTCC 1973, 72 h, read-out: IZ
Pseudomonas aeruginosa [10] = experiment: Antimicrobial activity against Pseudomonas aeruginosa MTCC 1688 at 1000 ug/ml after 24 hrs by cup plate method; conditions: MTCC 1688, 24 h, read-out: IZ
Staphylococcus aureus [11] = experiment: Antimicrobial activity against Staphylococcus aureus ATCC 29513 at 500 ug/ml after 24 hrs by cup plate method; conditions: ATCC 29513, 24 h, read-out: IZ
Klebsiella pneumoniae [12] = experiment: Antimicrobial activity against Klebsiella pneumoniae NCTC 13368 at 500 ug/ml after 24 hrs by cup plate method; conditions: NCTC 13368, 24 h, read-out: IZ
[13] = Antioxidant activity assessed as metal chelating activity by measuring inhibition of ferrozine-Fe2+ complex formation at 25 to 100 ug/ml
Pseudomonas aeruginosa [14] = experiment: Antimicrobial activity against Pseudomonas aeruginosa MTCC 1688 at 500 ug/ml after 24 hrs by cup plate method; conditions: MTCC 1688, 24 h, read-out: IZ
Pseudomonas aeruginosa [15] = experiment: Antimicrobial activity against Pseudomonas aeruginosa MTCC 1688 at 750 ug/ml after 24 hrs by cup plate method; conditions: MTCC 1688, 24 h, read-out: IZ
Escherichia coli [16] = experiment: Antimicrobial activity against Escherichia coli MTCC 723 at 500 ug/ml after 24 hrs by cup plate method; conditions: MTCC 723, 24 h, read-out: IZ
Staphylococcus aureus [17] = experiment: Antimicrobial activity against Staphylococcus aureus ATCC 29513 at 1000 ug/ml after 24 hrs by cup plate method; conditions: ATCC 29513, 24 h, read-out: IZ
Aspergillus terreus [18] = experiment: Antimicrobial activity against Aspergillus terreus MTCC 1782 at 1000 ug/ml after 72 hrs by cup plate method; conditions: MTCC 1782, 72 h, read-out: IZ
Aspergillus niger [19] = experiment: Antimicrobial activity against Aspergillus niger MTCC 281 at 750 ug/ml after 72 hrs by cup plate method; conditions: MTCC 281, 72 h, read-out: IZ
Escherichia coli [20] = experiment: Antimicrobial activity against Escherichia coli MTCC 723 at 1000 ug/ml after 24 hrs by cup plate method; conditions: MTCC 723, 24 h, read-out: IZ
Aspergillus terreus [21] = experiment: Antimicrobial activity against Aspergillus terreus MTCC 1782 at 500 ug/ml after 72 hrs by cup plate method; conditions: MTCC 1782, 72 h, read-out: IZ
Klebsiella pneumoniae [22] = experiment: Antimicrobial activity against Klebsiella pneumoniae NCTC 13368 at 1000 ug/ml after 24 hrs by cup plate method; conditions: NCTC 13368, 24 h, read-out: IZ
Aspergillus oryzae [23] = experiment: Antimicrobial activity against Aspergillus oryzae MTCC 3567 at 500 ug/ml after 72 hrs by cup plate method; conditions: MTCC 3567, 72 h, read-out: IZ
Aspergillus oryzae [24] = experiment: Antimicrobial activity against Aspergillus oryzae MTCC 3567 at 750 ug/ml after 72 hrs by cup plate method; conditions: MTCC 3567, 72 h, read-out: IZ
Klebsiella pneumoniae [25] = experiment: Antimicrobial activity against Klebsiella pneumoniae NCTC 13368 at 750 ug/ml after 24 hrs by cup plate method; conditions: NCTC 13368, 24 h, read-out: IZ

SMILES | zone of inhibition at 1000 µg/mL (Aspergillus oryzae [1]) [mm] | zone of inhibition at 500 µg/mL (Aspergillus flavus [3]) [mm] | zone of inhibition at 500 µg/mL (Aspergillus niger [4]) [mm] | zone of inhibition at 750 µg/mL (Aspergillus terreus [5]) [mm] | zone of inhibition at 750 µg/mL (Escherichia coli [6]) [mm] | zone of inhibition at 1000 µg/mL (Aspergillus niger [7]) [mm] | zone of inhibition at 750 µg/mL (Staphylococcus aureus [8]) [mm] | zone of inhibition at 750 µg/mL (Aspergillus flavus [9]) [mm] | zone of inhibition at 1000 µg/mL (Pseudomonas aeruginosa [10]) [mm] | zone of inhibition at 500 µg/mL (Staphylococcus aureus [11]) [mm] | zone of inhibition at 500 µg/mL (Klebsiella pneumoniae [12]) [mm] | Activity [13] | zone of inhibition at 500 µg/mL (Pseudomonas aeruginosa [14]) [mm] | zone of inhibition at 750 µg/mL (Pseudomonas aeruginosa [15]) [mm] | zone of inhibition at 500 µg/mL (Escherichia coli [16]) [mm] | zone of inhibition at 1000 µg/mL (Staphylococcus aureus [17]) [mm] | zone of inhibition at 1000 µg/mL (Aspergillus terreus [18]) [mm] | zone of inhibition at 750 µg/mL (Aspergillus niger [19]) [mm] | zone of inhibition at 1000 µg/mL (Escherichia coli [20]) [mm] | zone of inhibition at 500 µg/mL (Aspergillus terreus [21]) [mm] | other results
Cc1ccc2[nH]c(-c3ccccc3)c(C3C=C(c4ccc(Cl)cc4)Oc4[nH]c(=O)nc(N)c43)c2c1 (centres undefined) | 8 | 8 | 5 | 6 | 8 | 6 | 5 | 5 | 0 | 5 | 4 | Active | 0 | 0 | 10 | 7 | 5 | 4 | 3 | 7 | zone of inhibition at 1000 µg/mL (Aspergillus flavus [2]): 4 mm; zone of inhibition at 1000 µg/mL (Klebsiella pneumoniae [22]): 3 mm; zone of inhibition at 500 µg/mL (Aspergillus oryzae [23]): 8 mm; zone of inhibition at 750 µg/mL (Aspergillus oryzae [24]): 8 mm; zone of inhibition at 750 µg/mL (Klebsiella pneumoniae [25]): 3 mm
Nc1nc(=O)[nH]c2c1C(c1c(-c3ccccc3)[nH]c3ccccc13)C=C(c1ccc(Cl)cc1)O2 (centres undefined) | 3 | 12 | 5 | 4 | 13 | 5 | 14 | 12 | 13 | 14 | 11 | Active | 12 | 12 | 13 | 14 | 4 | 5 | 14 | 6 | zone of inhibition at 1000 µg/mL (Aspergillus flavus [2]): 12 mm; zone of inhibition at 1000 µg/mL (Klebsiella pneumoniae [22]): 8 mm; zone of inhibition at 500 µg/mL (Aspergillus oryzae [23]): 6 mm; zone of inhibition at 750 µg/mL (Aspergillus oryzae [24]): 5 mm; zone of inhibition at 750 µg/mL (Klebsiella pneumoniae [25]): 10 mm
Cc1ccc2[nH]c(-c3ccccc3)c(C3C=C(c4ccccc4)Oc4[nH]nc(N)c43)c2c1 (centres undefined) | 8 | 5 | 5 | 9 | 3 | 3 | 5 | 2 | 8 | 6 | 3 | Active | 9 | 8 | 3 | 5 | 9 | 5 | 3 | 9 | zone of inhibition at 1000 µg/mL (Aspergillus flavus [2]): 1 mm; zone of inhibition at 1000 µg/mL (Klebsiella pneumoniae [22]): 3 mm; zone of inhibition at 500 µg/mL (Aspergillus oryzae [23]): 9 mm; zone of inhibition at 750 µg/mL (Aspergillus oryzae [24]): 8 mm; zone of inhibition at 750 µg/mL (Klebsiella pneumoniae [25]): 3 mm
Cc1ccc2[nH]c(-c3ccccc3)c(C3C=C(c4ccccc4)Oc4nc5oc(=O)c(C#N)c(N)c5c(N)c43)c2c1 (centres undefined) | 8 | 5 | 10 | 4 | 9 | 10 | 8 | 0 | 0 | 9 | 4 | Active | 3 | 3 | 10 | 4 | 4 | 10 | 5 | 9 | zone of inhibition at 1000 µg/mL (Klebsiella pneumoniae [22]): 4 mm; zone of inhibition at 500 µg/mL (Aspergillus oryzae [23]): 11 mm; zone of inhibition at 750 µg/mL (Aspergillus oryzae [24]): 8 mm; zone of inhibition at 750 µg/mL (Klebsiella pneumoniae [25]): 4 mm
